Data reported in ChEMBL document CHEMBL3272295, “Drugs derived from cannabinoids. 5. delta6a,10a-Tetrahydrocannabinol and heterocyclic analogs containing aromatic side chains” (J Med Chem, 1976).
The source made the active and inactive calls. The calls are words filed in the database; no cut-off is given here.

Columns and labels:
[1] = system: Rattus norvegicus; experiment: Analgesic activity in po dosed Sprague-Dawley rat after 15 to 90 mins by tail flick test; format: functional
[2] = system: Mus musculus; experiment: Analgesic activity in po dosed mouse assessed as inhibition of acetic acid-induced writhing administered 30 mins prior to acetic acid challenge measured after 5 mins for 20 mins; format: functional
[3] = system: Rattus norvegicus; experiment: Antipsychotic activity in rat assessed as reduction of methamphetamine-induced hyperactivity at 5 mg/kg, po administered prior to methamphetamine challenge relative to vehicle-treated control; format: functional; parameters: scale not given: the % may be the effect or the level left
[4] = system: Rattus norvegicus; experiment: Antipsychotic activity in rat assessed as reduction of methamphetamine-induced hyperactivity at 2 mg/kg, po administered prior to methamphetamine challenge relative to vehicle-treated control; format: functional; parameters: scale not given: the % may be the effect or the level left
[5] = system: Mus musculus; experiment: Anticonvulsant activity in po dosed mouse assessed as dose required to protect 80% of animal measured after 1 to 4 hrs by audiogenic seizure test; format: functional
[6] = Acute toxicity in po dosed mouse; format: organism-based; settings: in vivo
[7] = system: Rhesus monkey; experiment: Antianxiety activity in po dosed rhesus monkey assessed as antiagressive behavior measured every hour post dosing; format: functional; settings: Macaca mulatta, read-out: MED
[8] = system: Canis familiaris; experiment: Antianxiety activity in po dosed dog assessed as ataxia administered as single dose measured up to 24 hrs; format: functional; settings: Canis lupus familiaris, read-out: MED
[9] = system: Felis catus; experiment: Hypnotic activity in cat assessed as increase in total sleep time at 0.5 mg/kg administered orally through diet measured for 12 hrs by EEG analysis; format: functional; settings: route oral
[10] = system: Mus musculus; experiment: Antianxiety activity in albino BALB/cJ mouse assessed as reduction in footshock-induced fighting behavior at 10 mg/kg, po after 30 to 90 mins; format: functional; parameters: scale not given: the % may be the effect or the level left
[11] = system: Rattus norvegicus; experiment: Antianxiety activity in Long-Evans rat assessed as reduction in motor activity at 5 mg/kg, po after 2 hrs relative to vehicle-treated control; format: functional; parameters: scale not given: the % may be the effect or the level left
[12] = system: Felis catus; experiment: Hypnotic activity in cat assessed as increase in non-REM sleep time at 0.5 mg/kg administered orally through diet measured for 12 hrs by EEG analysis; format: functional; settings: route oral
[13] = system: Mus musculus; experiment: Analgesic activity in mouse assessed as inhibition of acetic acid-induced writhing at 10 mg/kg, po administered 30 mins prior to acetic acid challenge measured after 5 mins for 20 mins; format: functional
[14] = system: Rattus norvegicus; experiment: Antihypertensive activity in spontaneously hypertensive rat model assessed as reduction in blood pressure at 1 mg/kg, po after 24 hrs; format: functional; parameters: scale not given: the % may be the effect or the level left
[15] = system: Rattus norvegicus; experiment: Antipsychotic activity in rat assessed as reduction of methamphetamine-induced hyperactivity at 20 mg/kg, po administered prior to methamphetamine challenge relative to vehicle-treated control; format: functional; parameters: scale not given: the % may be the effect or the level left
[16] = system: Rattus norvegicus; experiment: Antihypertensive activity in spontaneously hypertensive rat model assessed as reduction in blood pressure at 3 mg/kg, po after 3 hrs; format: functional; parameters: scale not given: the % may be the effect or the level left
[17] = system: Rattus norvegicus; experiment: Antihypertensive activity in spontaneously hypertensive rat model assessed as reduction in blood pressure at 1 mg/kg, po after 3 hrs; format: functional; parameters: scale not given: the % may be the effect or the level left
[18] = system: Rattus norvegicus; experiment: Antipsychotic activity in rat assessed as reduction of methamphetamine-induced hyperactivity at 10 mg/kg, po administered prior to methamphetamine challenge relative to vehicle-treated control; format: functional; parameters: scale not given: the % may be the effect or the level left
[19] = system: Rattus norvegicus; experiment: Antihypertensive activity in spontaneously hypertensive rat model assessed as reduction in blood pressure at 3 mg/kg, po after 24 hrs; format: functional; parameters: scale not given: the % may be the effect or the level left
[20] = species: Rattus norvegicus; experiment: animal or person; format: functional; settings: Charles River, route oral
Description: Antidiarrheal activity in Charles River rat assessed as inhibition of castor oil-induced diarrhea by measuring protected animals at 0.5 mg/kg, po administered 1 hr prior to castor oil challenge measured after 1 hr relative to vehicle-treated control

[21] = system: Mus musculus; experiment: Antianxiety activity in albino BALB/cJ mouse assessed as reduction in footshock-induced fighting behavior at 5 mg/kg, po after 30 to 90 mins; format: functional; parameters: scale not given: the % may be the effect or the level left
[22] = system: Rattus norvegicus; experiment: Antianxiety activity in Long-Evans rat assessed as reduction in motor activity at 1 mg/kg, po after 2 hrs relative to vehicle-treated control; format: functional; parameters: scale not given: the % may be the effect or the level left

For `CC(CCc1ccc(F)cc1)c1cc(O)c2c(c1)OC(C)(C)C1=C2CNCC1` (centres undefined), the Activity [1] was “inactive” and the inhibition [2] was “inactive”.
Work on `CC1CCC2=C(C1)c1c(O)cc(C(C)CCCc3ccccc3)cc1OC2(C)C` (centres undefined) yielded an Activity [3] of 77%, an Activity [4] of 46% and an Activity [5] of 30 mg/kg. For the same compound, the ED50 [2] was 17 mg/kg, the LD50 [6] was 750 mg/kg and the minimal effective dose [7] was 0.5 mg/kg. The minimal effective dose [8] was 1 mg/kg, the Time [9] was 28 min and the Activity [10] was 77%. The Activity [11] was 36% and the Time [12] was 2 min.
With `CC(CCc1ccc(F)cc1)C(C)c1cc(O)c2c(c1)OC(C)(C)C1=C2CNCC1` (centres undefined) the Activity [1] was “inactive” and the inhibition [2] was “inactive”.
With `CC(CCc1ccc(F)cc1)c1cc(O)c2c3c(c(=O)oc2c1)CCN(Cc1ccccc1)C3` (centres undefined) the Activity [1] was “inactive” and the inhibition [2] was “inactive”.
With `CC1CCC2=C(C1)c1c(O)cc(C(C)C(C)Cc3ccc(F)cc3)cc1OC2(C)C` (centres undefined) the inhibition in vivo at 10 mg/kg [13] was 38%, the LD50 [6] was ≥ 1000 mg/kg and the Activity [14] was 9%. It also gave an Activity [15] of 56%, an Activity [16] of 21% and an Activity [17] of 22%. For the same compound, the Activity [10] was 4%, the Activity [18] was 28% and the Activity [11] was 66%. It also gave an Activity [19] of 24%.
In the case of `CC(CCCCc1ccc(F)cc1)c1cc(O)c2c3c(c(=O)oc2c1)CCN(Cc1ccccc1)C3` (centres undefined), the Activity [1] is reported as “inactive” and the inhibition [2] is reported as “inactive”.
In the case of `CC1CCc2c(c3c(O)cc(C(C)C(C)Cc4ccc(F)cc4)cc3oc2=O)C1` (centres undefined), the Activity [1] is reported as “inactive” and the inhibition [2] is reported as “inactive”.
With `CC1CCc2c(c3c(O)cc(C(C)CCCc4ccccc4)cc3oc2=O)C1` (centres undefined) the Activity [1] was “inactive” and the inhibition [2] was “inactive”.
In the case of `C#CCN1CCC2=C(C1)c1c(OC(=O)C(C)CCN3CCOCC3)cc(C(C)CCCc3ccc(F)cc3)cc1OC2(C)C.Cl` (centres undefined), the Activity [3] is reported as 24%, the ED50 [1] is reported as 7 mg/kg and the ED50 [2] is reported as 7.2 mg/kg. The LD50 [6] was ≥ 1000 mg/kg, the Activity [10] was 26% and the Activity [11] was 71%.
For `CCCCCc1cc(O)c2c(c1)OC(C)(C)C1=C2CNCC1`, the Activity [1] was “inactive” and the inhibition [2] was “inactive”.
For `CC1CCc2c(c3c(O)cc(C(C)CCc4ccc(F)cc4)cc3oc2=O)C1` (centres undefined), the Activity [1] was “inactive” and the inhibition [2] was “inactive”.
For `CC(CCCc1ccc(F)cc1)C(C)c1cc(O)c2c(c1)OC(C)(C)C1=C2CNCC1` (centres undefined), the Activity [1] was “inactive” and the inhibition [2] was “inactive”.
For `CC(CCCCc1ccc(F)cc1)c1cc(O)c2c(c1)OC(C)(C)C1=C2CN(Cc2ccccc2)CC1` (centres undefined), the Activity [1] was “inactive” and the inhibition [2] was “inactive”.
In the case of `CC1CCc2c(c3c(O)cc(C(C)C(C)CCc4ccncc4)cc3oc2=O)C1` (centres undefined), the Activity [1] is reported as “inactive” and the inhibition [2] is reported as “inactive”.
With `CC1CCc2c(c3c(O)cc(C(C)CCCc4ccc(F)cc4)cc3oc2=O)C1` (centres undefined) the Activity [1] was “inactive” and the inhibition [2] was “inactive”.
In the case of `Cc1ccc(CCCC(C)c2cc(O)c3c4c(c(=O)oc3c2)CCN(Cc2ccccc2)C4)cc1` (centres undefined), the Activity [1] is reported as “inactive” and the inhibition [2] is reported as “inactive”.
In the case of `CC1CSC2=C1c1c(O)cc(C(C)CCCc3ccc(F)cc3)cc1OC2(C)C` (centres undefined), the Activity [3] is reported as 78%, the Activity [4] is reported as 55% and the ED50 [2] is reported as 8.4 mg/kg. It also gave an LD50 [6] of 500 mg/kg, a Time [9] of 11 min and an Activity [10] of 100%. For the same compound, the Activity [11] was 85% and the Time [12] was 8 min.
With `CC(CCCc1ccc(F)cc1)c1cc(O)c2c3c(c(=O)oc2c1)SCC3C` (centres undefined) the Activity [1] was “inactive” and the inhibition [2] was “inactive”.
In the case of `Cc1ccc(CCCC(C)c2cc(O)c3c(c2)OC(C)(C)C2=C3CC(C)CC2)cc1` (centres undefined), the Activity [3] is reported as 66%, the inhibition in vivo at 10 mg/kg [13] is reported as 30% and the LD50 [6] is reported as ≥ 1000 mg/kg. It also gave an Activity [14] of 0%, an Activity [15] of 72% and an Activity [16] of 26%. The Activity [17] was 0%, the Activity [10] was 10% and the inhibition in vivo at 0.5 mg/kg [20] was 90%. For the same compound, the Activity [11] was 16% and the Activity [19] was 16%.
In the case of `CC(CCCc1ccc(F)cc1)c1cc(O)c2c3c(c(=O)oc2c1)N1CCC3CC1` (centres undefined), the Activity [1] is reported as “inactive” and the inhibition [2] is reported as “inactive”.
`CC1CCC2=C(C1)c1c(O)cc(C(C)CCCCc3ccc(F)cc3)cc1OC2(C)C` (centres undefined) gave an Activity [3] of 65%, an Activity [21] of 4% and an ED50 [2] of 20.5 mg/kg. The LD50 [6] was 750 mg/kg, the Activity [14] was 4% and the Activity [16] was 33%. For the same compound, the Activity [17] was 7%, the Activity [22] was 40% and the inhibition in vivo at 0.5 mg/kg [20] was 80%. For the same compound, the Activity [18] was 71%, the Activity [11] was 73% and the Activity [19] was 14%.
For `C#CCN1CCC2=C(C1)c1c(OC(=O)CCCN3CCOCC3)cc(C(C)CCCc3ccc(F)cc3)cc1OC2(C)C.Cl.Cl` (centres undefined), the Activity [3] was 33%, the ED50 [1] was 5 mg/kg and the ED50 [2] was 9 mg/kg. For the same compound, the LD50 [6] was ≥ 1000 mg/kg, the Activity [10] was 0% and the Activity [11] was 48%.
